Data reported in article PMC10341573, “Design, Synthesis, and Biological Evaluation of Novel Quinazolin-4(3H)-One-Based Histone Deacetylase 6 (HDAC6) Inhibitors for Anticancer Activity” (International Journal of Molecular Sciences, 2023).
Where “and” joins values, the source holds several entries; their conditions need not be identical. Equal values may be shown once. Read-outs that look alike come from different tables or passages of the source.

What was measured:
HDAC4 = target: T1, HDAC4 (Homo sapiens, UniProt P56524); experiment: HDAC enzyme activity assay (fluorogenic, Boc-Lys(trifluoroacetyl)-AMC), HDAC4; format: biochemical; conditions: class IIa HDAC4; mean ± SD, triplicate
T1 construct: catalytic domain of HDAC4 (T648-T1057, full length: UniProt P56524); made in house; host or cells: E. coli BL21(DE3), pET14b vector
T1 sequence (P56524 648-1057): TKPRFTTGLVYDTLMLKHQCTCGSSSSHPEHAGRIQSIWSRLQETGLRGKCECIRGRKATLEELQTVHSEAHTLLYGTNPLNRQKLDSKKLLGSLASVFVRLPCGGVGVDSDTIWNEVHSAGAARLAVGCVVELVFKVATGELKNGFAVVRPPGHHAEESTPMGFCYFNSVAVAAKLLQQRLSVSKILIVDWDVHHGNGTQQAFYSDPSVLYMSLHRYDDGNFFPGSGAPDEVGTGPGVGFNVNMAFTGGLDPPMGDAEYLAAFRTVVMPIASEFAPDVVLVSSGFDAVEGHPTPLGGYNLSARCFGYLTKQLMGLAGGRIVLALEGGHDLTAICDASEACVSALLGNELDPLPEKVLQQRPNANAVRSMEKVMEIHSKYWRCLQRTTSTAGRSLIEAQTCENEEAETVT

HDAC6 = target: T2, HDAC6 (Homo sapiens, UniProt Q9UBN7); experiment: HDAC enzyme activity assay (fluorogenic, Boc-Lys(acetyl)-AMC), HDAC6; format: biochemical; conditions: for IC50: class IIb HDAC6, mean ± SD, triplicate
T2 construct: Full-length recombinant HDAC6 was purchased from BPS Bioscience; purchased BPS Bioscience
T2 sequence (Q9UBN7 1-1215): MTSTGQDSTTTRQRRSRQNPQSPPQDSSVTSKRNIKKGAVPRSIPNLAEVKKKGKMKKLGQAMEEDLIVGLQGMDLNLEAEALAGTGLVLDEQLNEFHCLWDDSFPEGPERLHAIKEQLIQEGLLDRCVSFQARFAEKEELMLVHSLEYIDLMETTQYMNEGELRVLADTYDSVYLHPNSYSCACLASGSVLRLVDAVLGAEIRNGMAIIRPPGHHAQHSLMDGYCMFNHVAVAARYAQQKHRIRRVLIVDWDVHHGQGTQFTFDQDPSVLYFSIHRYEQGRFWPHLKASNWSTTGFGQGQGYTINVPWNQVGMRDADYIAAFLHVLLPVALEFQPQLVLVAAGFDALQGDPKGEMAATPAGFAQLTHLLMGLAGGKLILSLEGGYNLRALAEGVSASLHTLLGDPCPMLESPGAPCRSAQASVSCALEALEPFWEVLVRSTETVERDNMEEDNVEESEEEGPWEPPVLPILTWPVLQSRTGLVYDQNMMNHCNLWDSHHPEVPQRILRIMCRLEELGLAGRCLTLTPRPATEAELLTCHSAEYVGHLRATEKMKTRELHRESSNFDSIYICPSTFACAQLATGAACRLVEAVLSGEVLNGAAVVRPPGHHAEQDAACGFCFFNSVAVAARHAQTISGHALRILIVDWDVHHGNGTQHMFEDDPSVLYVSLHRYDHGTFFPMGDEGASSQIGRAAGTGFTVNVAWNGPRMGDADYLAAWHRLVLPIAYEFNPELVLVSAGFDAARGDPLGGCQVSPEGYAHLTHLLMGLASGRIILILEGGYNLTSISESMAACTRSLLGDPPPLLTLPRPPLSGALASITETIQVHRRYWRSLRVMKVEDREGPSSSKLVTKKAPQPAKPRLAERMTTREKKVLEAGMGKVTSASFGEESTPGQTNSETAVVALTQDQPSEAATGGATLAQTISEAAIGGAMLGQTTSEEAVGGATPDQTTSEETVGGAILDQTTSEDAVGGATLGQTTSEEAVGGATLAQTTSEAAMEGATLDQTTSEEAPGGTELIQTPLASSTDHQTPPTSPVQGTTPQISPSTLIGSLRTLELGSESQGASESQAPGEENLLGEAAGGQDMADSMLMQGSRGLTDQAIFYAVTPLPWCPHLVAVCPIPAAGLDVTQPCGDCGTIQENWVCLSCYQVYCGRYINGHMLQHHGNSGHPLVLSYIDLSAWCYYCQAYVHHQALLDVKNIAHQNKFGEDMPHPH

HDAC8 = target: T3, HDAC8 (Homo sapiens, UniProt Q9BY41); experiment: HDAC enzyme activity assay (fluorogenic, Boc-Lys(trifluoroacetyl)-AMC), HDAC8; format: biochemical; conditions: class I HDAC8; mean ± SD, triplicate
T3 construct: codon-optimized full-length HDAC8; made in house; host or cells: E. coli BL21(DE3), pET14b vector
T3 sequence (Q9BY41 1-377): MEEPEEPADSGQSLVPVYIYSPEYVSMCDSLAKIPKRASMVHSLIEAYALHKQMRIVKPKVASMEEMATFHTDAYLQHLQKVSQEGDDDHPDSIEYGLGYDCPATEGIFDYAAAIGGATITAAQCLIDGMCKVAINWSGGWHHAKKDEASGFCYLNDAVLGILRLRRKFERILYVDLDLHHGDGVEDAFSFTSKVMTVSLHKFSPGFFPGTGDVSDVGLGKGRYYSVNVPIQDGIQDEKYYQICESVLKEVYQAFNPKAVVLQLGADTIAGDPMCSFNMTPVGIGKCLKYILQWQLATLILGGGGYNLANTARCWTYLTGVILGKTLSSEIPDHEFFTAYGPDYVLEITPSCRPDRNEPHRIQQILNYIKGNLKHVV

HCT116 = experiment: MTT cell proliferation assay, HCT116; format: cell-based, human; conditions: MTT, 72 h, mean ± SD, triplicate, read-out: IC50 ± SD HCT116
MCF7 = experiment: MTT cell proliferation assay, MCF7; format: cell-based, human; conditions: MTT, 72 h, mean ± SD, triplicate, read-out: IC50 ± SD MCF7
B16 = experiment: MTT cell proliferation assay, B16; format: cell-based, murine; conditions: MTT, 72 h, mean ± SD, triplicate, read-out: IC50 ± SD B16
HEK 293 = experiment: MTT cell proliferation assay, HEK 293; format: cell-based, human; conditions: MTT, 72 h, mean ± SD, triplicate, read-out: IC50 ± SD HEK 293

SMILES	IC50 (HDAC4)	IC50 (HDAC6)	IC50 (HDAC8)	IC50 (HCT116; Homo sapiens, HCT-116)	IC50 (MCF7; Homo sapiens, MCF7, 72 h)	IC50 (B16; Mus musculus, B16)	IC50 (HEK 293; Homo sapiens, HEK293)	melting point	selectivity against class IIa HDAC4 (HDAC6; HDAC6 versus HDAC4)	selectivity against class I HDAC8 (HDAC6; HDAC6 versus HDAC8)	IC50 (HCT116)	IC50 (MCF7)	IC50 (B16)	IC50 (HEK 293)
O=C(NO)c1ccc(CSc2nc3ccccc3c(=O)n2-c2ccc(Cl)cc2)cc1 [Compound 5a, 4-(((3-(4-chlorophenyl)-4-oxo-3,4-dihydroquinazolin-2-yl)thio)methyl)-N-hydroxybenzamide]	4.5 ± 1.2 µM	5.6 ± 0.6 µM	24 µM	46.2 ± 20 µM	26.5 ± 3.5 µM	48.8 ± 9.68 µM	30.9 µM							
O=C(NO)c1ccc(CSc2nc3ccccc3c(=O)n2-c2ccccc2)cc1 [Compound 5b, N-hydroxy-4-(((4-oxo-3-phenyl-3,4-dihydroquinazolin-2-yl)thio)methyl)benzamide]	2.3 ± 1.1 µM	0.15 ± 0.01 µM	1.4 ± 0.3 µM	17.6 ± 1.77 µM	24.3 ± 5.97 µM	28.9 ± 2.32 µM	26.4 ± 5 µM							
CCc1ccc(-n2c(SCc3ccc(C(=O)NO)cc3)nc3ccccc3c2=O)cc1 [Compound 5d, 4-(((3-(4-ethylphenyl)-4-oxo-3,4-dihydroquinazolin-2-yl)thio)methyl)-N-hydroxybenzamide]	0.64 ± 0.37 µM	0.28 ± 0.06 µM	2.3 ± 0.8 µM	34.5 ± 10.4 µM	21.7 ± 2.47 µM	29.8 ± 8.72 µM	> 50 µM	150 to 157 °C and 155 to 157 °C						
O=C(NO)c1ccc(CSc2nc3ccccc3c(=O)n2-c2ccc(Br)cc2)cc1 [Compound 5e, 4-(((3-(4-bromophenyl)-4-oxo-3,4-dihydroquinazolin-2-yl)thio)methyl)-N-hydroxybenzamide]	1.1 ± 0.4 µM	1.1 ± 0.1 µM	3 ± 0.5 µM	46.4 ± 17.8 µM	44.6 ± 1.07 µM	26.1 ± 1.27 µM	> 50 µM							
Cc1ccc(-n2c(SCc3ccc(C(=O)NO)cc3)nc3ccccc3c2=O)cc1C [Compound 5f, 4-(((3-(3,4-dimethylphenyl)-4-oxo-3,4-dihydroquinazolin-2-yl)thio)methyl)-N-hydroxybenzamide]	1.6 ± 0.9 µM	0.49 ± 0.12 µM	3 ± 1 µM	> 50 µM	> 50 µM	> 50 µM	> 50 µM	138 to 144 °C and 142 to 144 °C						
Cc1cccc(-n2c(SCc3ccc(C(=O)NO)cc3)nc3ccccc3c2=O)c1 [Compound 5g, N-hydroxy-4-(((4-oxo-3-(m-tolyl)-3,4-dihydroquinazolin-2-yl)thio)methyl)benzamide]	0.87 ± 0.31 µM	0.26 ± 0.02 µM	0.79 ± 0.16 µM	30.7 ± 15.8 µM	25.3 ± 3.21 µM	23 ± 13.7 µM	> 50 µM							
O=C(NO)c1ccc(CSc2nc3ccccc3c(=O)n2-c2cccc(Cl)c2)cc1 [Compound 5h, 4-(((3-(3-chlorophenyl)-4-oxo-3,4-dihydroquinazolin-2-yl)thio)methyl)-N-hydroxybenzamide]	1.4 ± 0.5 µM	0.17 ± 0.03 µM	1.1 ± 0.3 µM	> 50 µM	> 50 µM	> 50 µM	> 50 µM							
O=C(NO)c1ccc(CSc2nc3ccccc3c(=O)n2-c2ccccc2F)cc1 [Compound 5i, 4-(((3-(2-fluorophenyl)-4-oxo-3,4-dihydroquinazolin-2-yl)thio)methyl)-N-hydroxybenzamide]	8.4 ± 1.2 µM	0.36 ± 0.04 µM	2.9 ± 0.6 µM	40.4 ± 16 µM	> 50 µM	> 50 µM	> 50 µM							
O=C(NO)c1ccc(CSc2nc3cc(Cl)ccc3c(=O)n2-c2ccccc2)cc1 [Compound 5j, 4-(((7-chloro-4-oxo-3-phenyl-3,4-dihydroquinazolin-2-yl)thio)methyl)-N-hydroxybenzamide]	4.3 ± 1.2 µM	0.65 ± 0.07 µM	4 ± 1 µM	> 50 µM	> 50 µM	> 50 µM	> 50 µM							
O=C(NO)c1ccc(CSc2nc3cc(Cl)ccc3c(=O)n2-c2ccccc2F)cc1 [Compound 5m, 4-(((7-chloro-3-(2-fluorophenyl)-4-oxo-3,4-dihydroquinazolin-2-yl)thio)methyl)-N-hydroxybenzamide]	0.56 ± 0.24 µM	0.21 ± 0.05 µM	3.3 ± 0.9 µM	> 50 µM	> 50 µM	> 50 µM	> 50 µM							
Cc1ccc(-n2c(SCc3ccc(C(=O)NO)cc3)nc3cc(Cl)ccc3c2=O)cc1C [Compound 5o, 4-(((7-chloro-3-(3,4-dimethylphenyl)-4-oxo-3,4-dihydroquinazolin-2-yl)thio)methyl)-N-hydroxybenzamide]	7.1 ± 1.1 µM	0.4 µM and 0.39 µM	14 µM	> 50 µM	> 50 µM	> 50 µM	> 50 µM		18 fold	36 fold				
Cc1cccc2nc(SCc3ccc(C(=O)NO)cc3)n(-c3ccccc3)c(=O)c12 [Compound 5p, N-hydroxy-4-(((5-methyl-4-oxo-3-phenyl-3,4-dihydroquinazolin-2-yl)thio)methyl)benzamide]	0.4 ± 0.14 µM	0.22 ± 0.05 µM	2.7 ± 0.6 µM	> 50 µM	> 50 µM	> 50 µM	> 50 µM							
Cc1cccc2nc(SCc3ccc(C(=O)NO)cc3)n(-c3ccc(Cl)cc3)c(=O)c12 [Compound 5s, 4-(((3-(4-chlorophenyl)-5-methyl-4-oxo-3,4-dihydroquinazolin-2-yl)thio)methyl)-N-hydroxybenzamide]	0.91 ± 0.33 µM	0.86 ± 0.06 µM	5.9 ± 0.8 µM	> 50 µM	> 50 µM	> 50 µM	> 50 µM							
C#Cc1cccc(Nc2ncnc3cc(OCCOC)c(OCCOC)cc23)c1 [Erlotinib, reference compound]				> 50 µM	> 50 µM	> 50 µM	> 50 µM							
CC(/C=C/C(=O)NO)=C\[C@@H](C)C(=O)c1ccc(N(C)C)cc1 [Trichostatin A, reference compound]											18.3 ± 5.63 µM	42.5 ± 11.3 µM	28.9 ± 13 µM	15.3 ± 1.45 µM
CN1CCc2c(c3ccccc3n2Cc2ccc(C(=O)NO)cc2)C1 [Tubastatin, reference compound]				1.34 ± 0.04 µM	12.7 ± 4.68 µM	1.99 ± 0.25 µM	1.26 ± 0.29 µM							
